Results: patent US20220073495A1 (priority 2020, published 2022)
Where two headings read alike, the source gives them in different places.

Tests used:
viral M mRNA [1] = assay: High-throughput smRNA-FISH screen for viral M mRNA processing and nuclear export; format: cell-based, influenza A/WSN/33 virus; settings: 2.5 μM, A/WSN/33
A/WSN/33 [2] = assay: microbe, parasite or virus in culture; format: cell-based, influenza virus; settings: unidentified influenza virus, WSN, A549, 24 h; for IC50: read-out: WSN IC50, A549 cells, A/WSN/33 MOI 0.01, 24 h post infection, NP-positive cells; for IC90: read-out: WSN IC90, A549 cells, A/WSN/33 MOI 0.01, 24 h post infection, NP-positive cells
A549 cells [3] = settings: human
in vitro = settings: human
viral M mRNA [4] = assay: smRNA-FISH of M mRNA in WSN-infected cells; format: cell-based, influenza virus (WSN); settings: 2.5 μM, WSN MOI 2 for 8 h
HA mRNA = assay: smRNA-FISH of HA mRNA in WSN-infected cells; format: cell-based, influenza virus (WSN); settings: 2.5 μM, WSN MOI 2 for 8 h
NS mRNA = assay: smRNA-FISH of NS mRNA in WSN-infected cells; format: cell-based, influenza virus (WSN); settings: 2.5 μM, WSN MOI 2 for 8 h
[5] = test system: bulk cellular poly(A) RNA; assay: RNA-FISH of poly(A) RNA in uninfected cells; format: cell-based, Human; settings: 2.5 μM
cellular GAPDH mRNA = assay: smRNA-FISH of GAPDH mRNA in uninfected cells; format: cell-based, Human; settings: 2.5 μM
M1 to M2 splicing = format: cell-based, influenza virus (WSN); settings: 1 μM or 2.5 μM, WSN MOI 2 for 8 h
NS1 to NS2 splicing = assay: qPCR of relative ratio of NS2 to NS1 mRNAs; format: cell-based, influenza virus (WSN); settings: 1 μM or 2.5 μM, WSN MOI 2 for 8 h
cellular ATP levels = assay: Cellular ATP levels (CellTiter-Glo); format: cell-based; settings: 2.5 μM, 24 h
Description: FIG. 30 depicts cellular ATP levels measured in cells treated with 0.1% DMSO or 2.5 μM of compound 2 at 24 h. Four independent experiments were performed and each contained 6 technical replicates.
ATP was measured by luminescence using the CellTiter-Glo kit (Promega) according to the manufacturer's instructions.

cellular RNAs = assay: Cell fractionation and RNAseq of poly(A) RNA; format: cell-based, human; settings: 2.5 μM, 9 hours, cutoff 1.5-fold
[6] = test system: viral proteins (M1, M2, NA, HA); format: cell-based, A/WSN33
A/WSN/33 (H1N1) = format: cell-based, influenza A virus
A/Vietnam/1203/04 (H5N1) = format: cell-based, influenza A virus
A/Panama/99 (H3N2) = format: cell-based, influenza A virus
A/WSN/33 [7] = format: cell-based, influenza virus
[8] = test system: primary human bronchial epithelial cells (HBEC); assay: Cell viability of primary human bronchial epithelial cells (CellTiter-Glo); format: cell-based; settings: 24 h
Description: FIG. 38 depicts compound 2 inhibiting influenza virus replication in primary human bronchial epithelial cells at non-toxic concentrations. […] (B) Cell viability was monitored at 24 h after treatment with 0.1% DMSO or compound 2 at the depicted concentrations using CellTiter-Glo. Three independent experiments were performed.

A549 cells [9] = assay: MTT cytotoxicity assay

OC[C@H]1O[C@@H](n2cnc3cc(Cl)c(Cl)cc32)[C@H](O)[C@@H]1O [DRB, 5,6-dichloro-1-β-D-ribofuranosylbenzimidazole]
viral M mRNA nuclear retention (viral M mRNA [1]): positive control for viral M mRNA nuclear retention

NC(=O)CSc1nc2ccccc2[nH]1 [Compound 5]
IC50 (A/WSN/33 [2]): > 50 µM | IC90 (A/WSN/33 [2]): > 50 µM | 24 h MTT CC10 (A549 cells [3]): >50 µM | CC50 (in vitro): > 50 µM

O=C(CSc1nc2ccccc2[nH]1)Nc1ccc(Br)cn1 [Compound 2, 2-((1H-benzo[d]imidazol-2-yl)thio)-N-(5-bromopyridin-2-yl)acetamide]
IC50 (A/WSN/33 [2]): 3.18 µM | IC90 (A/WSN/33 [2]): 16.9 µM | nuclear export of viral M mRNA (viral M mRNA [4]): robustly inhibited | total M mRNA fluorescence intensity (viral M mRNA [4]): did not alter | nuclear export of HA mRNA (HA mRNA): robustly inhibited | nuclear retention of NS mRNA (NS mRNA): weak nuclear retention | total levels of the NS mRNA (NS mRNA): not altered | poly(A) RNA nuclear to cytoplasmic ratio [5]: slightly decreased | total levels of bulk cellular poly(A) RNA [5]: did not affect | GAPDH mRNA nuclear to cytoplasmic distribution (cellular GAPDH mRNA): not affected | total levels of cellular GAPDH mRNA (cellular GAPDH mRNA): slightly decreased | M1 to M2 splicing (relative ratio of M2 to M1 mRNAs) (M1 to M2 splicing): No effect | NS1 to NS2 splicing (NS1 to NS2 splicing): slightly inhibited | cellular ATP levels as a surrogate for cytotoxicity (cellular ATP levels): no significant change | mRNAs down-regulated (cellular RNAs): 829 mRNAs | mRNAs more cytoplasmic compared to control cells (cellular RNAs): 98 mRNAs | mRNAs preferentially retained in the nucleus (cellular RNAs): 96 mRNAs | mRNAs up-regulated (cellular RNAs): 103 mRNAs | mRNAs with altered nuclear to cytoplasmic distribution (cellular RNAs): 194 mRNAs | levels of the viral M1 and M2 proteins as well as NA and HA proteins [6]: decrease | IC50 in plaque assay relative to NP assay (less) (A/WSN/33 (H1N1)): ~2 fold | viral replication (viral titer) (A/WSN/33 (H1N1)): inhibited | viral replication (viral titer) (A/Vietnam/1203/04 (H5N1); A549 cells, MOI 0.01, 24 h): inhibited | IC50 in plaque assay relative to NP assay (less) (A/Vietnam/1203/04 (H5N1); A/Vietnam/1203/04, plaque assay vs NP assay): ~2 fold | IC50 in plaque assay relative to NP assay (less) (A/Panama/99 (H3N2)): ~2 fold | viral replication (viral titer) (A/Panama/99 (H3N2)): inhibited | viral replication in primary human bronchial epithelial cells (A/WSN/33 [7]): inhibited | cell viability of HBEC [8]: non-toxic | CC50 at 24 h (in vitro; A549 cells): > 50 µM | 24 h MTT CC10 (A549 cells [9]; 24 h, concurrent with immunostaining): 5.839 µM | cell viability at concentrations inhibiting replication (A549 cells [9]; MTT, 24 h or 48 h): did not significantly alter

Cc1ccc(NC(=O)CCC2=Nc3ccccc3C2)nc1 [Compound 16]
IC50 (A/WSN/33 [2]): 30.9 µM | IC90 (A/WSN/33 [2]): > 50 µM | 24 h MTT CC10 (A549 cells [3]): 7.382 µM | CC50 (A549 cells [3]): > 50 µM

CC(Sc1nc2ccccc2[nH]1)C(=O)Nc1ccc(Br)cn1 (centres unmarked) [Compound 12]
IC50 (A/WSN/33 [2]): > 50 µM | IC90 (A/WSN/33 [2]): > 50 µM | 24 h MTT CC10 (A549 cells [3]): >50 µM | CC50 (in vitro): > 50 µM

Cn1c(SCC(=O)Nc2ccc(Br)cn2)nc2ccccc21 [Compound 1]
IC50 (A/WSN/33 [2]): 1.89 µM | IC90 (A/WSN/33 [2]): 12.1 µM | 24 h MTT CC10 (A549 cells [3]): 1.417 µM | CC50 (in vitro): > 50 µM

Brc1ccc(CSc2nc3ccccc3[nH]2)cc1 [Compound 17]
IC50 (A/WSN/33 [2]): > 50 µM | IC90 (A/WSN/33 [2]): > 50 µM | 24 h MTT CC10 (A549 cells [3]): 19.818 µM | CC50 (in vitro): > 50 µM

O=C(CSc1nc2ccccc2[nH]1)Nc1ccccn1 [Compound 11]
IC50 (A/WSN/33 [2]): > 50 µM | IC90 (A/WSN/33 [2]): > 50 µM | 24 h MTT CC10 (A549 cells [3]): >50 µM | CC50 (in vitro): > 50 µM

O=C(CSc1nc2ccccc2[nH]1)NCc1ccccc1 [Compound 9]
IC50 (A/WSN/33 [2]): > 50 µM | IC90 (A/WSN/33 [2]): > 50 µM | 24 h MTT CC10 (A549 cells [3]): >50 µM | CC50 (in vitro): > 50 µM

Cc1cccc2[nH]c(SCC(=O)Nc3ccc(Br)cn3)nc12 [Compound 3]
IC50 (A/WSN/33 [2]): 4.94 µM | IC90 (A/WSN/33 [2]): 10 µM | 24 h MTT CC10 (A549 cells [3]): 0.683 µM | CC50 (in vitro): > 50 µM

Cc1ccc(NC(=O)CCc2nc3ccccc3o2)nc1 [Compound 15]
IC50 (A/WSN/33 [2]): 30.7 µM | IC90 (A/WSN/33 [2]): > 50 µM | 24 h MTT CC10 (A549 cells [3]): >50 µM | CC50 (A549 cells [3]): > 50 µM

ivermectin [reference compound]
cytotoxicity (cell viability) (A549 cells [9]; 48 h, MTT, concentrations used for compound 2): positive control for cytotoxicity

O=C(CSc1nc2ccccc2[nH]1)NCc1ccccn1 [Compound 8]
IC50 (A/WSN/33 [2]): > 50 µM | IC90 (A/WSN/33 [2]): > 50 µM | 24 h MTT CC10 (A549 cells [3]): >50 µM | CC50 (in vitro): > 50 µM

CCn1c(SCC(=O)Nc2ccc(Br)cn2)nc2ccccc21 [Compound 18]
IC50 (A/WSN/33 [2]): 38.4 µM | IC90 (A/WSN/33 [2]): > 50 µM | 24 h MTT CC10 (A549 cells [3]): 47.499 µM | CC50 (in vitro): > 50 µM
